This is an account of results in US20250073184A1, “CANNABIGEROQUINONE COMPOUNDS, COMPOSITIONS INCLUDING SUCH COMPOUNDS, AND USES OF SUCH COMPOUNDS AND COMPOSITIONS” (Juva Life, Inc., priority 2021, published 2025).

The test system of one test is TNFa. Description: TNFa secretion assay in human PBMCs (LPS, ELISA). Type of test: cell-based. The conditions noted are these: read-out: Inhibitory Activity EC50, TNF. Here is the method: Fetal bovine serum (FBS) was obtained from ThermoFisher (Cat #16000044). • Other reagents: 96 well TC plates were obtained from ThermoFisher (Cat #07-2000-90). LPS was obtained from Sigma (Cat #L3024).
TNF-alpha was assessed using a standard ELISA protocol. Cryopreserved PBMCs were thawed in a water bath and transferred to 50 mL polypropylene tubes. The cells were washed two times with 25 mL of RPMI medium supplemented with 5% of heat-inactivated FBS and re-suspended at a density of 4.5^^6 cells/mL. The cells were plated into 96 well TC late (100 uL/well). Serially diluted compound was added to the cells in duplicate wells for each concentration. Control wells received DMSO only (0.3% final). The cells were pre-incubated with compound for 1 hr. After pre-incubation, the cells were stimulated by LPS (100 ng/mL) for 6 hr. Control samples with and without LPS in the absence of compound were assembled in each test plate. TNFa was detected in media supernatants by using a sandwich anti-TNFa ELISA kit (BD Biosciences) according to protocol provided by the manufacturer. ELISA readout (optical density at 450 nm) is commensurable with the amount of TNFa produced by the cells. Assay window was determined in each experiment by comparing average OD450 values in stimulated and un-stimulated samples in the absence of compound. ELISA calibration was performed in each detection plate using serially diluted recombinant human TNFa, to ensure that OD450 values for all test samples were within linear range of detection.%-Inhibition by compound was calculated using following equation:
where OD450100% is optical density in control samples stimulated with LPS without compound, OD4500% is optical density in unstimulated control samples, and OD450compound is optical density in a sample stimulated with LPS in the presence of compound.
(§1) The calculated %-Inh values were plotted against compound concentration. To determine IC50 values, dose-response curves were fitted by a 4-parameter sigmoid inhibition model using XLFit® software (IDBS).

The subject of the next test is IL-1β. Description: IL-1β inhibitory activity. Type of test: cell-based.
In test [1] the target is T1, Recombinant human ALOX15 (Arachidonate 15-Lipoxygenase) (Homo sapiens, UniProt P16050).
T1 construct: full length encompassing amino acids 2-662(end); purchased BPS Biosciences 50220
T1 sequence (P16050 2-662): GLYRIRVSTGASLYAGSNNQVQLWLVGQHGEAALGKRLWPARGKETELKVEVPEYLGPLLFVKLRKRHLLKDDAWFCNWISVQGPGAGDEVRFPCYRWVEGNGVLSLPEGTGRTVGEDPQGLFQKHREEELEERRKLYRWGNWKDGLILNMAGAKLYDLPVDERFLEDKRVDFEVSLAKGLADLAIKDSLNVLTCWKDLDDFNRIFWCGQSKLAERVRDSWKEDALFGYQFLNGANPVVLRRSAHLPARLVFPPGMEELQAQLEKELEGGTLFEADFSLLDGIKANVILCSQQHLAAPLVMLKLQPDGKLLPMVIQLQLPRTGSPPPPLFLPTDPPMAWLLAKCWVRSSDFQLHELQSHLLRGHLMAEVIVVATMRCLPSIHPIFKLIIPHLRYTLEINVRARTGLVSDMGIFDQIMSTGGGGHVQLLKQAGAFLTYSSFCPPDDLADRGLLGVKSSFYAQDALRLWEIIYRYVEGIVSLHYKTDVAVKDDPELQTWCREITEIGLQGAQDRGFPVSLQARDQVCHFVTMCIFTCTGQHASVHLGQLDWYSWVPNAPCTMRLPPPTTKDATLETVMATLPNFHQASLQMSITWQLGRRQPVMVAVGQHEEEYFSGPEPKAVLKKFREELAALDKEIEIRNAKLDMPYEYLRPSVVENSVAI
The test can be described thus: Biochemical LOX-15 assay. Here is the method:
The LOX-15 assay was performed in assay buffer comprising: 50 mM Tris (pH 7.5), 5 uM DHR, 50 uM AA, and 50 nM recombinant enzyme. Serially diluted compounds were prepared in DMSO in Echo qualified 384 well plates. An assay buffer was then prepared […] supplemented 10 uM DHRA. 10 uL of the supplemented buffer was dispensed into control (no enzyme) wells in the black 384 well assay plate. Next, a 2× enzyme solution was prepared, comprising 100 nM LOX-15 enzyme in the supplemented assay buffer. 10 μL of the 2× enzyme solution was then dispensed into test wells in the black 384 well assay plate. Serially diluted compounds were added to the assay plate by acoustic dispensing (Labcyte 550). Control wells received DMSO only.
Next, the 2× substrate was prepared to comprise 100 uM arachidonic acid in the assay buffer. 10 uL of the 2× substrate was then added to all wells in the assay plate. The plate was incubated for 3 hours.
where RFU100% is fluorescence in control samples without compound, RFU0% is fluorescence in control samples without LOX-15, and RFUcompound fluorescence in a sample with compound.
The calculated %-Inh values were plotted against compound concentration. To determine EC50 values, dose-response curves were fitted by a 4-parameter sigmoid inhibition model using XLFit® software (IDBS).

For a further test, the system named is IFNgamma. Description: IFNgamma secretion assay in human PBMCs (PHA-M, ELISA). Type of test: cell-based. The following applies: for EC50: read-out: Inhibitory Activity EC50, IFNγ. Here is the method: Fetal bovine serum (FBS) was obtained from ThermoFisher (Cat #16000044). • Other reagents: 96 well TC plates were obtained from ThermoFisher (Cat #07-2000-90).
IFN-gamma was assessed using a standard ELISA protocol. Cryopreserved PBMCs were thawed in a water bath and transferred to 50 mL polypropylene tubes. The cells were washed two times with 25 mL of RPMI medium supplemented with 5% of regular FBS and re-suspended at a density of 1.5^^6 cells/mL. The cells were plated into 96 well TC late (100 uL/well). Serially diluted compound was added to the cells in duplicate wells for each concentration. Control wells received DMSO only (0.3% final). The cells were pre-incubated with compound for 2 hr. After pre-incubation, the cells were stimulated by PHA-M (10 ug/mL) for 40 hr. Control samples with and without PHA-M in the absence of compound were assembled in each test plate. IFNg was detected in media supernatants by using a sandwich anti-IFNg ELISA kit (BD Biosciences) according to protocol provided by the manufacturer. ELISA readout (optical density at 450 nm) is commensurable with the amount of IFNg produced by the cells. Assay window was determined in each experiment by comparing average OD450 values in stimulated and un-stimulated samples in the absence of compound. ELISA calibration was performed in each detection plate using serially diluted recombinant human IFN gamma, to ensure that OD450 values for all test samples were within linear range of detection. %-Inhibition by compound was calculated using following equation:
where OD450100% is optical density in control samples stimulated with PHA-M without compound, OD4500% is optical density in unstimulated control samples, and OD450compound is optical density in a sample stimulated with PHA-M in the presence of compound.
as §1

Where [2] appears, read: recombinant enzyme, read-out: Inhibitory Activity EC50, 15-Lox.
Setting [3] is: PBMC, human PBMCs, LPS 100 ng/mL 6 hr.
Setting [4] is: PBMC, human PBMCs, PHA-M 10 ug/mL 40 hr.

Where two headings read alike, the source gives them in different places.

What is called EC50 is the midpoint of the concentration-response curve. With Cannabigerol Quinone [Formula VI], the EC50 in the test with TNFa (human PBMCs, LPS 100 ng/mL 6 hr) came out at 18.5 µM; in the test on IL-1β, 5300 nM; in test [1] (setting [2]) it was 0.98 µM; in the test with IFNgamma (human PBMCs, PHA-M 10 ug/mL 40 hr), 910 nM. In addition, the “stronger inhibition of 15-Lox compared to Cox-2” value in test [1] is listed as “over 60 fold”. In addition, the “stronger inhibition of IFNγ compared to Cox-2” value in the test with IFNgamma is “over 60 fold”.

For the compound `CCCCCC1=C(NC)C(=O)C(C/C=C(\C)CCC=C(C)C)=C(O)C1=O` [Formula XLI], the half-maximal effective concentration (EC50) was greater than 10 µM with TNFa (setting [3]), 120 nM in the test with IL-1β, 28.8 µM in test [1] and 2510 nM in the test with IFNgamma (setting [4]).

On to `CCCCCc1cc(OC(C)=O)c(C/C=C(\C)CCC=C(C)C)c(O)c1OC(C)=O` [Formula XLIII], for which the EC50 in the test on TNFa (setting [3]) was found to be 8.68 µM; in the test with IL-1β, 890 nM; in test [1] it was 8.4 µM; in the test with IFNgamma (setting [4]), 1130 nM.

For `CCCCCc1cc(O)c(C/C=C(\C)CCC=C(C)C)c(O)c1O` [Formula XXXIX], the EC50 stood at 6.2 µM with TNFa (Homo sapiens, PBMC, 6 h); 890 nM with IL-1β; 2.82 µM in test [1] (setting [2]); 1850 nM with IFNgamma (Homo sapiens, PBMC, 40 h).

Take `CCCCCc1cc(OC)c(C/C=C(\C)CCC=C(C)C)c(O)c1OC` [Formula XLII]: the EC50 in the test with TNFa (setting [3]) is greater than 10 µM; with IL-1β, greater than 10000 nM; in test [1], 18 µM; in the test on IFNgamma (setting [4]), 4100 nM.
